Reference: publication PMC3601784 (Chromatographia, 2012)

Legend:
Human recombinant sEH = target: T1, Human recombinant sEH (Homo sapiens, UniProt P34913); assay: LC-BCD/MS; format: biochemical; conditions: mixture of sEHi 6, sEHi 1, sEHi 7, diclofenac and phenylbutazone separated by LC
T1 sequence (P34913 1-555): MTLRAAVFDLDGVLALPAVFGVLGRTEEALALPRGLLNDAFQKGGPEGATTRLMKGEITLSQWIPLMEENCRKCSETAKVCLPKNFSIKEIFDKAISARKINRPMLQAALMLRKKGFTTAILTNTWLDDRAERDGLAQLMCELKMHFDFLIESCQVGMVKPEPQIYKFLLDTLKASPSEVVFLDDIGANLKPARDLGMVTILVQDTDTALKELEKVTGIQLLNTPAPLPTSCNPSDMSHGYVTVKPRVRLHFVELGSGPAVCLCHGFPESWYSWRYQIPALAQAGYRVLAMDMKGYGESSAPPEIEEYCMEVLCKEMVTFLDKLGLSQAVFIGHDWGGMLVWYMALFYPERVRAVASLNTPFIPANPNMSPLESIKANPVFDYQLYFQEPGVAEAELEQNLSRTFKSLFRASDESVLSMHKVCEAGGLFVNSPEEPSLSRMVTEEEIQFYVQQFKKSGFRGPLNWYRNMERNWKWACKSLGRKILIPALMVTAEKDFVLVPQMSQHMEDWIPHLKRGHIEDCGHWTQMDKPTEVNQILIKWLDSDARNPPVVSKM

[1] = Solubility of PHOME in assay buffer; format: physicochemical; conditions: BIS–TRIS buffer with 0.1 g/L Tween 80, in the superloop

## CCCCC1C(=O)N(c2ccccc2)N(c2ccccc2)C1=O [phenylbutazone]
Human recombinant sEH
  sEH activity (BCD peak) in a standard mixture: without sEH activity

## COc1ccc2cc(C(C#N)OC(=O)CC3OC3c3ccccc3)ccc2c1 (centres unmarked) [PHOME, (3-phenyl-oxiranyl)-acetic acid cyano-(6-methoxy-naphthalen-2-yl)-methyl ester]
[1]
  limit of solubility: ~30 µM
